Results on two compounds are retold here after patent US20230303547A1, “N-CYANOPYRROLIDINES WITH ACTIVITY AS USP30 INHIBITORS” (MISSION THERAPEUTICS LIMITED, priority 2020, published 2023).

The term IC50 denotes the concentration needed to halve the response being measured. For orientation: EC50 means the concentration needed to bring the measured effect to its halfway point. Broadly, the solubility is how much of the substance goes into solution per volume. The low end stands for little dissolved substance, the high end for much dissolved substance.

≈ marks a conversion by molar mass, not a printed value.

The nature of data set [1]: Brain homogenate free fraction by equilibrium dialysis. It is filed as in vitro ADME. As to conditions: mouse brain homogenate; read-out: Binding Mouse Brain fu,br. The source says: Brain fu,br: The free fraction of a compound in brain homogenate preparation determined by in vitro equilibrium dialysis.
On the technique in general: In equilibrium dialysis free small molecules cross a membrane that holds back macromolecules.

A short description of data set [2]: Plasma free fraction by equilibrium dialysis. In kind it is in vitro ADME. As to conditions: mouse plasma; read-out: Binding Mouse Plasma fu,p. An excerpt:
Plasma fu,p: The free fraction of a compound in plasma preparation determined by in vitro equilibrium dialysis.

The next data set deals with Cathepsin S (Homo sapiens (Human), UniProt P25774). Nature of the data set: Cathepsin S IC50. In kind it is biochemical.
Chain of Cathepsin S (P25774 115-331, species assumed): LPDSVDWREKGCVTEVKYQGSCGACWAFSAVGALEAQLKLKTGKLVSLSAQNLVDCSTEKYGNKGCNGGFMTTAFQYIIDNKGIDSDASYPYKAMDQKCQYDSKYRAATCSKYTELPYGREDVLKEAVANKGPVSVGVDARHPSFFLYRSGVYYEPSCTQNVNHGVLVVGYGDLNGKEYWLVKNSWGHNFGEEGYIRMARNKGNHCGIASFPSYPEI
The next data set concerns the target Cathepsin L (Homo sapiens (Human), UniProt P07711). Put plainly: Cathepsin L IC50. It is filed as biochemical.
A further data set in a line: Mouse plasma stability. In kind it is in vitro ADME. The conditions noted are these: read-out: Stability Mouse plasma t½. An excerpt: Other parameters that may be measured using standard assays that are indicative of a compound’s exposure profile include, for example plasma stability (half-life measurement), blood AUC, Cmax, Cmin and Tmax values.
Another data set concerns TOM20 ubiquitylation. Nature of the data set: TOM20-ubiquitylation assay. It is filed as cell-based, human. The source says: (§1) USP30 is a transmembrane protein located in the outer membrane of mitochondria, which are energy-producing organelles present inside cells. […] The USP30 cellular western blot (WB) assay described herein aims to test the activity of compounds against USP30 in cells using an irreversible activity probe to monitor USP30 activity. Analogously to the cellular western blot assay, target engagement assessment (ex vivo) may be carried out in either brain or kidney tissue samples from compound-dosed animals. To extend target binding knowledge to downstream pharmacodynamics, assessment of TOM20 (an outer mitochondrial membrane protein) ubiquitylation may be made.
Human cell lines can be challenged with mitochondrial depolarizing agents (ionophores (eg. CCCP, valinomycin), mitochondrial complex inhibitors (oligomycin, antimycin A)) to induce ubiquitylation of TOM20, which is then further promoted in the presence of USP30 inhibitors. TOM20 ubiquitylation is subsequently assessed through western blotting of the cell lysates, with TOM20 ubiquitylation adduct detection possible due to an 8 kDa molecule weight increase for each molecule of ubiquitin added, resulting in laddering of a TOM20 immunoreactive band. TOM20-ubiquitylation levels can be quantified using chemiluminescence densitometry of laddered immunoreactive bands.

The target of the next data set is Endogenous USP30 (Homo sapiens (Human), UniProt Q70CQ3). Put plainly: USP30 endogenous cellular target engagement assay (Cell TE WB). It is filed as cell-based. As to conditions: Hela cells stably overexpressing YFP-Parkin, 1 hour.
Chain of Endogenous USP30 (Q70CQ3 whole entry): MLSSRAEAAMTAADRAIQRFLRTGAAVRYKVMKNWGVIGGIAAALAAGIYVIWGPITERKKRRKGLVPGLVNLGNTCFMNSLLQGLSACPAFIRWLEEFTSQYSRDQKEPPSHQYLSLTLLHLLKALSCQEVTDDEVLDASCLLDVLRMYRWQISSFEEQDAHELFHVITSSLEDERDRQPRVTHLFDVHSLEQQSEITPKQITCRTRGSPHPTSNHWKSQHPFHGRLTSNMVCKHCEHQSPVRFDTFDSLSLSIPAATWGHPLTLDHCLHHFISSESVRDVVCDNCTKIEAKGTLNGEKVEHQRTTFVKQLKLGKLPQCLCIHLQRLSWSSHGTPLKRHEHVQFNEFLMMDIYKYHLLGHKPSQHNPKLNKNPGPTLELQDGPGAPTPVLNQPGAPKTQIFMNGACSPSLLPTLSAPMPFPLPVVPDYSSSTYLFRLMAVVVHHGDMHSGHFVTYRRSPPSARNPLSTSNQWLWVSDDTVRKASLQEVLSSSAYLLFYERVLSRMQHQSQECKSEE
Source text: as §1
Hela cells stably overexpressing YFP-Parkin were seeded into 6 well dishes. Once adhered, cells were treated with appropriate concentrations of test compounds or vehicle control for 1 hour at 37° C., 5% CO2. […] USP30 was detected using an anti-USP30 Sheep S746D antibody (MRC PPU Reagents and Services) and a rabbit anti sheep secondary IgG (H+L) horseradish peroxidase conjugated (Thermo #31480) and visualised using ECL reagent (GE #RPN2109) on a GE LAS4000 imager. Target engagement was measured by quantitation of the bands corresponding to USP30 and USP30 bound to the Ub-VME probe and expression of this proportion compared to vehicle treated control.

A short description of another data set: Hepatocyte Cl mouse. It is filed as in vitro ADME. The conditions noted are these: mouse hepatocytes. The method, then: Hep Cl mouse: in vitro hepatocyte clearance in mouse cells.
(§2) Clu: in vitro clearance. Clu as defined here is the scaled clearance, in turn calculated from the intrinsic clearance. The intrinsic clearance is the predicted clearance due to hepatic metabolic reactions, determined from incubation of a compound in a hepatocyte preparation.

A short description of the next data set: PK mouse 10 mg/kg po. In kind it is in vivo. As to conditions: for Unbound plasma Cmax/TOM20-Ub cell potency: 10 mg/kg po dose - mouse; for Oral F: mouse, 10 mg/kg. An excerpt: Oral F: Oral bioavailability.
Another data set is described as follows: Hepatocyte Cl human. In kind it is in vitro ADME. As to conditions: human hepatocytes. As for the experimental part: Hep Cl human: in vitro hepatocyte clearance in human cells.
as §2

Another data set addresses Cathepsin K (Homo sapiens (Human), UniProt P43235). Nature of the data set: Cathepsin K IC50. In kind it is biochemical.
A further data set concerns the target Cathepsin B (Homo sapiens (Human), UniProt P07858). Put plainly: Cathepsin B IC50. In kind it is biochemical.
A further data set is described as follows: Turbidimetric solubility. In kind it is physicochemical. As to conditions: aqueous buffer, kinetic from dmso stock. An excerpt: The solubility of a compound is an important factor in achieving a desired concentration of drug in systemic circulation for the anticipated pharmacological response. Low aqueous solubility is a problem encountered with formulation development of new chemical entities and to be absorbed a drug must be present in the form of solution at the site of absorption. The kinetic solubility of a compound may be measured using a turbidimetric solubility assay, the data from which may also be used in conjunction with Caco-2 permeability data to predict dose dependent human intestinal absorption.
Turbidimetric solubility: Test compound solution prepared in DMSO diluted into aqueous buffer. Turbidimetry is used as the end-point by measuring absorbance at 620 nm.

The nature of the next data set: PK mouse 2 mg/kg iv. In kind it is in vivo. The conditions noted are these: for Kp uu: brain and plasma (unbound), 2 mg/kg IV dose - mouse; for clearance: plasma, mouse, 2 mg/kg iv, read-out: Cl plasma. An excerpt: Cl in vivo clearance: Pharmacokinetic measurement of the volume of plasma (or any matrix) from which a substance is completely removed per unit time.
Kpuu is the ratio of unbound drug in brain to unbound drug in plasma and may be indicative of potential for treating peripheral and/or CNS indications.

A further data set is described as follows: Log D. It is filed as physicochemical. As to conditions: pH 7.4; read-out: Log D measured at pH 7.4. An excerpt: log D: distribution co-efficient; lipophilicity measurement.
Data set [3] relates to HCT116 human colorectal carcinoma cells. Nature of the data set: In vitro cytotoxicity (Cell Tox), alamarBlue. In kind it is cell-based. As to conditions: 96-hour continual compound exposure. The source says:
There is also a need for compounds that have a favourable safety profile, which may be measured by a variety of standard in vitro and in vivo methods. A cell toxicity counter-screen may be used to assay the anti-proliferative/cytotoxic effect in a particular cell line (e.g. HCT116) by fluorometric detection of rezasurin (alamarBlue™) to resofurin in response to mitochondrial activity.
In Vitro Cytotoxicity (Cell Tox): Measured in HCT116 human colorectal carcinoma cells using alamarBlue™ as the assay endpoint. Compound cytotoxicity was measured over a period of 96-hour continual compound exposure.

Chain of Cathepsin K (P43235 115-329, species assumed): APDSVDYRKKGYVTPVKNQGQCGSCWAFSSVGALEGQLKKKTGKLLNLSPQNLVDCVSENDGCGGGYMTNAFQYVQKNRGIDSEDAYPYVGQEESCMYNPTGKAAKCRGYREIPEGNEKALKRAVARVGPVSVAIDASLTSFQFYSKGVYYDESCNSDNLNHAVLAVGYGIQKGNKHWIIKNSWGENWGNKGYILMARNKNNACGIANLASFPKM
Chain of Cathepsin L (P07711 114-333, species assumed): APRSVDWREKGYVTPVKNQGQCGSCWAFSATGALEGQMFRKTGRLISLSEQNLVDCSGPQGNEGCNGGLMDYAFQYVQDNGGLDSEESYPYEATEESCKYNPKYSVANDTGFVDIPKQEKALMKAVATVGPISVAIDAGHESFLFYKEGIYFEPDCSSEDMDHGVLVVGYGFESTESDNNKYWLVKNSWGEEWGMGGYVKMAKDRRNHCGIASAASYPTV

In the case of `COC[C@@H]1C[C@@H](NC(=O)c2ncc(-c3cc(C#N)ccc3OC3CC3)o2)CN1C#N` [Example 2, 5-(5-cyano-2-cyclopropoxyphenyl)-N-((3R,5S)-1-cyano-5-(methoxymethyl)pyrrolidin-3-yl)oxazole-2-carboxamide], the values for the fraction unbound in [1] and in data set [2] were 0.2 and 0.07, respectively. The IC50 on Cathepsin S was 91.2 µM; at Cathepsin L, 23.6 µM; at Cathepsin K it was 18.9 µM; on Cathepsin B, > 300 µM. For the same compound, the half-life in “Mouse plasma stability” is > 120 min. For the same compound, in the data set with TOM20 ubiquitylation, the “TOM20-Ub 1.5-fold gain, Antimycin A/oligomycin mitophagy trigger EC1.5x” value stood at 0.007 µM. Besides, the EC50 on Endogenous USP30 is 3 nM; in [3], > 30 µM; in [3] (Homo sapiens, HCT-116, 96 h), 27.1 µM. In “Hepatocyte Cl mouse”, the “Hepatocyte Cl mouse Scaled Clu” value amounted to 105 mL/min/kg. Moreover, the “Unbound plasma Cmax/TOM20-Ub cell potency” value in “PK mouse 10 mg/kg po” was 140. Also, the “Oral F” value in the data set “PK mouse 10 mg/kg po” came to 47%. In addition, the “Hepatocyte Cl human Scaled Clu” value in “Hepatocyte Cl human” was 5.0 mL/min/kg. For the same compound, in the data set “Turbidimetric solubility”, the solubility was > 100 µM. Also, in “PK mouse 2 mg/kg iv”, the Kp uu worked out at 0.01. Further, the clearance in “PK mouse 2 mg/kg iv” was found to be 20 mL/min/kg. Also, in “Log D”, the logD came out at 2.2.
For the compound `C[C@@H]1C[C@@H](NC(=O)c2ncc(-c3cc(C#N)ccc3OC3CC3)o2)CN1C#N` [Example 1, 5-(5-cyano-2-cyclopropoxyphenyl)-N-((3R,5R)-1-cyano-5-methylpyrrolidin-3-yl)oxazole-2-carboxamide], the results for the fraction unbound in [1] and in data set [2] were 0.06 and 0.09, respectively. Besides, the concentration for half-maximal inhibition (IC50) turned out to be 54.4 µM on Cathepsin S, 9.9 µM on Cathepsin L, 10.5 µM against Cathepsin K and 107 µM on Cathepsin B. For the same compound, in “Mouse plasma stability”, the half-life was > 120 min. The “TOM20-Ub 1.5-fold gain, Antimycin A/oligomycin mitophagy trigger EC1.5x” value in the data set on TOM20 ubiquitylation is reported as 0.006 µM. The half-maximal effective concentration (EC50) is 2 nM on Endogenous USP30 and 23.8 µM in data set [3] (Homo sapiens, HCT-116, 96 h). The “Hepatocyte Cl mouse Scaled Clu” value in the data set “Hepatocyte Cl mouse” is 117 mL/min/kg. In the data set “PK mouse 10 mg/kg po”, the “Unbound plasma Cmax/TOM20-Ub cell potency” value was 45. The “Oral F” value in the data set “PK mouse 10 mg/kg po” was determined as 37%. Besides, the “Hepatocyte Cl human Scaled Clu” value in the data set “Hepatocyte Cl human” came out at 18.6 mL/min/kg. Moreover, the solubility in the data set “Turbidimetric solubility” turned out to be 65 µM (≈ 24.5 µg/mL). In “PK mouse 2 mg/kg iv”, this compound came in with a Kp uu of 0.02. The clearance in “PK mouse 2 mg/kg iv” came to 41 mL/min/kg. In addition, the logD in “Log D” came to 2.5.
